Assay results as given in patent US20090325964A1, “Piperazine Metabotropic Glutamate Receptor 5 (MGLUR5) Negative Allosteric Modulators For Anxiety/Depression” (Wyeth, priority 2008, published 2009).
Where two headings read alike, the source gives them in different places.

Biological target: T1, rat mGluR5 receptor (Rattus norvegicus, UniProt P31424)
T1 construct: expressed in transfected cells; host or cells: HEK-293
Assay: [3H]-MPEP displacement binding assay, HEK-293 cell membranes expressing rat mGluR5
Details: for inhibition at 10 µM: single point, @ 10 μM compound, read-out: PCT INHIB (%) @ 10 μM; for Ki: read-out: Median Ki; for IC50: no Ki given, read-out: IC50 (printed in the Median Ki column instead of a Ki)
How it was run: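 Membranes from HEK-293 cells expressing rat mGluR5 (12-25 μg protein), incubated 60 min at room temperature with 4 nM [3H]-MPEP in 50 mM Tris pH 7.5, then filtered. Nonspecific binding defined with 10 μM MPEP.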

[1] = [3H]-MPEP displacement, rat mGluR5

T1 sequence (P31424 21-1203): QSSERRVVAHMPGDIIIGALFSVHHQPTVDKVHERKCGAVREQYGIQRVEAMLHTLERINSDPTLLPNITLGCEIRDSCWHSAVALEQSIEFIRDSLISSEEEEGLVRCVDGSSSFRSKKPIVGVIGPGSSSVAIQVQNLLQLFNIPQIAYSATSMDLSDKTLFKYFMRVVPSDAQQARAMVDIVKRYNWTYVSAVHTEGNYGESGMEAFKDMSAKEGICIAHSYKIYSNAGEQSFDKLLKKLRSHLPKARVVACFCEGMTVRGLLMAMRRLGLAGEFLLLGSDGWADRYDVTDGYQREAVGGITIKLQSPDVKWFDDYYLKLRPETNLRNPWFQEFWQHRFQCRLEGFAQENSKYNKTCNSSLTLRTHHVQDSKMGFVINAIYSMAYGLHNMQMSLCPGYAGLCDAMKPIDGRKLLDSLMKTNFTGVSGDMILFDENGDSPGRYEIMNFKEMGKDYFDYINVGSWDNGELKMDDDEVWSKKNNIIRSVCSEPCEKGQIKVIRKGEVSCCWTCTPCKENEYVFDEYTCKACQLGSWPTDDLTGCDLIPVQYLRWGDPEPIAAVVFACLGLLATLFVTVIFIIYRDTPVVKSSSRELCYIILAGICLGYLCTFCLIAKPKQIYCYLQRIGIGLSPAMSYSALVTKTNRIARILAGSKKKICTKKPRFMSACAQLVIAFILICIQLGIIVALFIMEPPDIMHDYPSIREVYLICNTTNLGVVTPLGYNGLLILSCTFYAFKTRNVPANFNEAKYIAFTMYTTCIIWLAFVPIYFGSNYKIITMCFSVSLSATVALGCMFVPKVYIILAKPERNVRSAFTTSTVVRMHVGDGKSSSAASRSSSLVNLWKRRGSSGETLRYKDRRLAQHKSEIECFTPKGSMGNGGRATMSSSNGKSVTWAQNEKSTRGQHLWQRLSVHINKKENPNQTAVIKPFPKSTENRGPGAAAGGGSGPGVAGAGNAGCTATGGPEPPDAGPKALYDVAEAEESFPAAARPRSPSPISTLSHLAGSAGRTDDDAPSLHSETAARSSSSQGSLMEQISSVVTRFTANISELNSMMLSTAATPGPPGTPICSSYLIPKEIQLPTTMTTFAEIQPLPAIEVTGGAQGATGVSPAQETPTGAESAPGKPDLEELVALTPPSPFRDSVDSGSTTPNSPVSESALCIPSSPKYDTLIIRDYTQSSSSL

COc1ccc(C(=O)N2CCN(c3ccccn3)CC2)cc1OCc1cccc(F)c1 [Compound 163, 1-{3-[(3-fluorobenzyl)oxy]-4-methoxybenzoyl}-4-pyridin-2-ylpiperazine]
inhibition at 10 µM (Table 3A): 11%

Cc1cccc(OCc2cccc(C(=O)N3CCN(c4ccccn4)CC3)c2)c1 [Compound 164, 1-{3-[(3-methylphenoxy)methyl]benzoyl}-4-pyridin-2-ylpiperazine]
Ki ([3H]-MPEP 4 nM, Table 4A): 1750 nM

N#Cc1cccc(OCc2cccc(C(=O)N3CCN(c4ccccn4)CC3)c2)c1 [Compound 165, 3-({3-[(4-pyridin-2-ylpiperazin-1-yl)carbonyl]benzyl}oxy)benzonitrile]
Ki ([3H]-MPEP 4 nM, Table 4A): 2970 nM

CCc1cccc(OCc2cccc(C(=O)N3CCN(c4ccccn4)CC3)c2)c1 [Compound 166, 1-{3-[(3-ethylphenoxy)methyl]benzoyl}-4-pyridin-2-ylpiperazine]
Ki ([3H]-MPEP 4 nM, Table 4A): > 10000 nM

COc1cccc(OCc2cccc(C(=O)N3CCN(c4ccccn4)CC3)c2)c1 [Compound 167, 1-{3-[(3-methoxyphenoxy)methyl]benzoyl}-4-pyridin-2-ylpiperazine]
Ki ([3H]-MPEP 4 nM, Table 4A): > 10000 nM

O=C(c1cccc(COc2cccc(Cl)c2)c1)N1CCN(c2ccccn2)CC1 [Compound 168, 1-{3-[(3-chlorophenoxy)methyl]benzoyl}-4-pyridin-2-ylpiperazine]
Ki ([3H]-MPEP 4 nM, Table 4A): 813 nM

O=C(c1cccc(COc2cccc(Br)c2)c1)N1CCN(c2ccccn2)CC1 [Compound 169, 1-{3-[(3-bromophenoxy)methyl]benzoyl}-4-pyridin-2-ylpiperazine]
Ki ([3H]-MPEP 4 nM, Table 4A): 862 nM

O=C(c1cccc(COc2ccccn2)c1)N1CCN(c2ccccn2)CC1 [Compound 170, 1-pyridin-2-yl-4-{3-[(pyridin-2-yloxy)methyl]benzoyl}piperazine]
Ki ([3H]-MPEP 4 nM, Table 4A): > 10000 nM

O=C(c1cccc(COc2ccccc2)c1)N1CCN(c2ccccn2)CC1 [Compound 171, 1-[3-(phenoxymethyl)benzoyl]-4-pyridin-2-ylpiperazine]
Ki ([3H]-MPEP 4 nM, Table 4A): > 10000 nM

O=S(=O)(c1cccc(C#Cc2cccc(O)c2)c1)N1CCN(c2ccccn2)CC1 [Compound 172, 3-({3-[(4-pyridin-2-ylpiperazin-1-yl)sulfonyl]phenyl}ethynyl)phenol]
inhibition at 10 µM (Table 5): 0%

O=S(=O)(c1cccc(C#CC2=CCCCC2)c1)N1CCN(c2ccccn2)CC1 [Compound 173, 1-{[3-(cyclohex-1-en-1-ylethynyl)phenyl]sulfonyl}-4-pyridin-2-ylpiperazine]
inhibition at 10 µM (Table 5): 0%

O=S(=O)(c1cccc(C#CCc2ccccc2)c1)N1CCN(c2ccccn2)CC1 [Compound 174, 1-{[3-(3-phenylprop-1-yn-1-yl)phenyl]sulfonyl}-4-pyridin-2-ylpiperazine]
inhibition at 10 µM (Table 5): 0%

COc1cccc(C#Cc2cccc(S(=O)(=O)N3CCN(c4ccccn4)CC3)c2)c1 [Compound 175, 1-({3-[(3-methoxyphenyl)ethynyl]phenyl}sulfonyl)-4-pyridin-2-ylpiperazine]
inhibition at 10 µM (Table 5): 0%

O=S(=O)(c1cccc(C#Cc2ccccc2)c1)N1CCN(c2ccccn2)CC1 [Compound 176, 1-{[3-(phenylethynyl)phenyl]sulfonyl}-4-pyridin-2-ylpiperazine]
inhibition at 10 µM (Table 5): 0%

Oc1cccc(C#Cc2cccc(CN3CCN(c4ccccn4)CC3)c2)c1 [Compound 177, 3-({3-[(4-pyridin-2-ylpiperazin-1-yl)methyl]phenyl}ethynyl)phenol]
inhibition at 10 µM (Table 6): 13%

C(#Cc1cccc(CN2CCN(c3ccccn3)CC2)c1)C1=CCCCC1 [Compound 178, 1-[3-(cyclohex-1-en-1-ylethynyl)benzyl]-4-pyridin-2-ylpiperazine]
inhibition at 10 µM (Table 6): 0%

C(#Cc1cccc(CN2CCN(c3ccccn3)CC2)c1)Cc1ccccc1 [Compound 179, 1-[3-(3-phenylprop-1-yn-1-yl)benzyl]-4-pyridin-2-ylpiperazine]
inhibition at 10 µM (Table 6): 0%

Nc1cccc(C#Cc2cccc(CN3CCN(c4ccccn4)CC3)c2)c1 [Compound 180, 3-({3-[(4-pyridin-2-ylpiperazin-1-yl)methyl]phenyl}ethynyl)aniline]
inhibition at 10 µM (Table 6): 0%

COc1cccc(C#Cc2cccc(CN3CCN(c4ccccn4)CC3)c2)c1 [Compound 181, 1-{3-[(3-methoxyphenyl)ethynyl]benzyl}-4-pyridin-2-ylpiperazine]
inhibition at 10 µM (Table 6): 0%

COc1ccc(C(=O)N2CCN(c3ccccn3)CC2)cc1/C=C/c1ccccc1 [Compound 182, 1-{4-methoxy-3-[(E)-2-phenylvinyl]benzoyl}-4-pyridin-2-ylpiperazine]
Ki ([3H]-MPEP 4 nM, Table 7A): 827 nM | inhibition at 10 µM (Table 7A): 86%

COc1ccc(C(=O)N2CCCN(c3ccc(C#N)cn3)CC2)cc1C#Cc1ccccn1 [Compound 202, 6-{4-[4-methoxy-3-(pyridin-2-ylethynyl)benzoyl]-1,4-diazepan-1-yl}nicotinonitrile]
Ki [1]: 1040 nM

COc1ccc(C(=O)N2CCCN(c3ncccc3C(F)(F)F)CC2)cc1C#Cc1ccccn1 [Compound 209, 1-[4-methoxy-3-(pyridin-2-ylethynyl)benzoyl]-4-[3-(trifluoromethyl)pyridin-2-yl]-1,4-diazepane]
Ki [1]: 674 nM

COc1ccc(C(=O)N2CCCN(c3ccc(C(F)(F)F)cn3)CC2)cc1C#Cc1ccccn1 [Compound 210, 1-[4-methoxy-3-(pyridin-2-ylethynyl)benzoyl]-4-[5-(trifluoromethyl)pyridin-2-yl]-1,4-diazepane]
Ki [1]: 851 nM

COc1ccc(C(=O)N2CCCN(c3cccc(C)n3)CC2)cc1C#Cc1ccccn1 [Compound 211, 1-[4-methoxy-3-(pyridin-2-ylethynyl)benzoyl]-4-(6-methylpyridin-2-yl)-1,4-diazepane]
Ki [1]: 619 nM

COc1ccc(C(=O)N2CCCN(c3ncc(C(F)(F)F)cc3Cl)CC2)cc1C#Cc1ccccn1 [Compound 212, 1-[3-chloro-5-(trifluoromethyl)pyridin-2-yl]-4-[4-methoxy-3-(pyridin-2-ylethynyl)benzoyl]-1,4-diazepane]
Ki [1]: 704 nM

COc1ccc(C(=O)N2CCCN(c3ncccc3C#N)CC2)cc1C#Cc1ccccn1 [Compound 214, 2-{4-[4-methoxy-3-(pyridin-2-ylethynyl)benzoyl]-1,4-diazepan-1-yl}nicotinonitrile]
Ki [1]: 458 nM

COc1ccc(C(=O)N2CCCN(c3ccc([N+](=O)[O-])cn3)CC2)cc1C#Cc1ccccn1 [Compound 215, 1-[4-methoxy-3-(pyridin-2-ylethynyl)benzoyl]-4-(5-nitropyridin-2-yl)-1,4-diazepane]
Ki [1]: 2190 nM

COc1ccc(C(=O)N2CCN(S(=O)(=O)c3ccccc3)CC2)cc1C#Cc1ccccn1 [Compound 224, 1-[4-methoxy-3-(pyridin-2-ylethynyl)benzoyl]-4-(phenylsulfonyl)piperazine]
Ki [1]: 115 nM

COc1ccc(C(=O)N2CCN(c3ccc(C(F)(F)F)cc3)CC2)cc1C#Cc1ccccn1 [Compound 228, 1-[4-methoxy-3-(pyridin-2-ylethynyl)benzoyl]-4-[4-(trifluoromethyl)phenyl]piperazine]
Ki [1]: 674 nM

COc1ccc(C(=O)N2CCN(c3ccccc3OC)CC2)cc1C#Cc1ccccn1 [Compound 230, 1-(2-methoxyphenyl)-4-[4-methoxy-3-(pyridin-2-ylethynyl)benzoyl]piperazine]
Ki [1]: 734 nM

COc1ccc(C(=O)N2CCN(S(=O)(=O)Cc3ccccc3)CC2)cc1C#Cc1ccccn1 [Compound 234, 1-(benzylsulfonyl)-4-[4-methoxy-3-(pyridin-2-ylethynyl)benzoyl]piperazine]
IC50 [1]: > 10000 nM

COc1ccc(C(=O)N2CCN(c3ccc(S(C)(=O)=O)cc3)CC2)cc1C#Cc1ccccn1 [Compound 238, 1-[4-methoxy-3-(pyridin-2-ylethynyl)benzoyl]-4-[4-(methylsulfonyl)phenyl]piperazine]
Ki [1]: 521 nM

COc1ccc(C(=O)N2CCN(S(=O)(=O)c3ccc(Cl)c(Cl)c3)CC2)cc1C#Cc1ccccn1 [Compound 239, 1-[(3,4-dichlorophenyl)sulfonyl]-4-[4-methoxy-3-(pyridin-2-ylethynyl)benzoyl]piperazine]
Ki [1]: 1410 nM

COc1ccc(C(=O)N2CCN(c3ccc(F)cc3S(C)(=O)=O)CC2)cc1C#Cc1ccccn1 [Compound 240, 1-[4-fluoro-2-(methylsulfonyl)phenyl]-4-[4-methoxy-3-(pyridin-2-ylethynyl)benzoyl]piperazine]
IC50 [1]: > 10000 nM

COc1ccc(C(=O)N2CCN(c3cc(C)ccc3C)CC2)cc1C#Cc1ccccn1 [Compound 242, 1-(2,5-dimethylphenyl)-4-[4-methoxy-3-(pyridin-2-ylethynyl)benzoyl]piperazine]
Ki [1]: 1010 nM

COc1ccc(C(=O)N2CCN(c3ccccc3C(F)(F)F)CC2)cc1C#Cc1ccccn1 [Compound 246, 1-[4-methoxy-3-(pyridin-2-ylethynyl)benzoyl]-4-[2-(trifluoromethyl)phenyl]piperazine]
Ki [1]: 2840 nM

COc1ccc(C(=O)N2CCN(C(=O)C3CCCO3)CC2)cc1C#Cc1ccccn1 (stereo not shown) [Compound 249, 1-[4-methoxy-3-(pyridin-2-ylethynyl)benzoyl]-4-(tetrahydrofuran-2-ylcarbonyl)piperazine]
Ki [1]: 181 nM

COc1ccc(C(=O)N2CCN(c3sc(S(N)(=O)=O)cc3[N+](=O)[O-])CC2)cc1C#Cc1ccccn1 [Compound 254, 5-{4-[4-methoxy-3-(pyridin-2-ylethynyl)benzoyl]piperazin-1-yl}-4-nitrothiophene-2-sulfonamide]
Ki [1]: 108 nM

COc1ccc(C(=O)N2CCN(c3cc4ccc(Cl)cc4cn3)CC2)cc1C#Cc1ccccn1 [Compound 260, 7-chloro-3-{4-[4-methoxy-3-(pyridin-2-ylethynyl)benzoyl]piperazin-1-yl}isoquinoline]
Ki [1]: 951 nM
